# Tests used:
# [1] = system: Vesicular stomatitis virus (VSV), Indiana strain; assay type: cell-based; settings: tested in parallel
# creatine kinase [2] = target: T1, creatine kinase (Oryctolagus cuniculus, UniProt P00563); settings: cited from earlier work
# HSV-1 = assay: Cytopathic effect (CPE) assay, HSV-1; settings: for effect on percent monolayer cell death, second set of experiments: 0-200 PFU, series of concentrations; for protective effect: no agar overlay, highest concentrations tested
# creatine kinase [3] = target: T1, creatine kinase; assay: Phosphorylation by creatine kinase, coupled assay with pyruvate kinase and LDH; assay type: biochemical; settings: 40 mM
# Experimental: Compound 5/6 (AM 361), where R=CH3, was prepared as described above and assayed for phosphorylation by creatine kinase in a coupled assay with pyruvate kinase and lactate dehydrogenase (LDH) as described (Bergmeyer, H. U., ed. (1974), In: Methods of Enzymatic Analysis, Second English Edition, Volume 4, (Verlag Chemie Weinheim and Academic Press, Inc.: New York, London) pp. 1772-1779). Each compound listed in Table 11 below was tested at a concentration of 40 mM. Compound 5/6 (AM 361) was slowly phosphorylated.
# [4] = Drug cytotoxicity in CPE assay (monolayer death in absence of virus); settings: monkey, vero cells
# [5] = system: Pseudorabies virus, Aujeszky strain; assay type: cell-based; settings: similar assay
# [6] = system: Guinea Pig Cytomegalovirus, Strain 22122; assay: CPE reduction assay, guinea pig cytomegalovirus in GPE cells; assay type: cell-based; settings: 12.5 mg/ml
# [7] = system: Varicella-Zoster Virus, strain Oka; assay: microbe, parasite or virus in culture; assay type: cell-based; settings: Human alphaherpesvirus 3, MRC5, read-out: plaque reduction
# T1 sequence (P00563 whole entry): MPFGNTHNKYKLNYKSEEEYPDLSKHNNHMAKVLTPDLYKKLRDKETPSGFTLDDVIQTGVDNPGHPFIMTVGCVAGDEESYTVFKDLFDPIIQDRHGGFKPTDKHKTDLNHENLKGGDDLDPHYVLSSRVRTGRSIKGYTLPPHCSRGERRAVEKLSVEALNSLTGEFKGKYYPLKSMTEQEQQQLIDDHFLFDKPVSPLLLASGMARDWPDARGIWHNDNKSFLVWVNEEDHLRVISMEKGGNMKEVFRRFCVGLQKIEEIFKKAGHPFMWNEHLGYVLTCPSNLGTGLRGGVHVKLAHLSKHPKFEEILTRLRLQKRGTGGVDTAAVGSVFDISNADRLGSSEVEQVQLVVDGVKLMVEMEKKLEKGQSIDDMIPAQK
compound,measurement,setting,value
"NC(=O)c1ncn([C@@H]2O[C@H](CO)[C@@H](O)[C@H]2O)n1 [Ribavirin, reference compound]",effect on the virus,[1],only a moderate effect
"Nc1nccn1CC(=O)O [1-carboxymethyl-2-aminoimidazole, reference compound]",binding to creatine kinase,creatine kinase [2],an affinity equal to that of cyclocreatine
same,"initial rate of phosphorylation by creatine kinase, slower",creatine kinase [2],5 orders of magnitude
same,dose response against cytopathogenicity,"HSV-1; Vero cells, 0.31-5.0 mg/ml, FIG. 16",shows no such effect
1-carboxymethyl-2-iminomethylimidazolidine [AM 361],% Rate of Creatine,creatine kinase [3],2.4%
same,Δ in Absorbance/min,creatine kinase [3],0.041
same,effect on cytopathic effect,"HSV-1; 22.1 mM, Vero cells",reduced the cytopathic effect as compared with the no drug control in wells inoculated with 25 or 50 PFU/well
same,virus-induced monolayer death,"HSV-1; 44.2 mM, Vero cells, each inoculum 12-200 PFU/well (no drug control 30-90%)",2%
same,effect on cytopathic effect,"HSV-1; 18.2-72.7 mM, serum-starved Vero cells, FIG. 17A",inhibited the cytopathic effect
C=CCN=C1NCCN1CC(=O)O [Compound 10b],antiviral effect,"HSV-1; 2.58-45.90 mM, Vero cells, 12-200 PFU/well",No consistent antiviral effect
same,cytotoxicity at 23000 µM,[4],7%
same,cytotoxicity at 45900 µM,[4],30%
Nc1ncnc2c1ncn2[C@@H]1O[C@H](CO)[C@@H](O)[C@@H]1O [adenine arabinoside],effect against Pseudorabies virus,[5],ineffective
isoepoxycreatine [reference compound],inactivation of creatine kinase,creatine kinase [2]; affinity reagent,completely and irreversibly inactivate creatine kinase
CN=C1NCCN1CC(=O)O [Compound 10a],effect on monolayer death,"HSV-1; 19.1 mM, 12, 50, 100 or 200 PFU/well, not 25 PFU/well",a reduction in monolayer death
same,cytotoxicity at 38200 µM,[4],5%
"CN(CC(=O)O)C(=N)NP(=O)(O)O [P-creatine, N-phosphorocreatine, reference compound]",Km,"creatine kinase [2]; reverse reaction, without cyclocreatine, read-out: Km of P-creatine",1800 µM
"CC(CC(=O)O)C(=N)N (stereo not shown) [carbocreatine, 3-amidinobutyric acid, reference compound]","effect on percent monolayer cell death, second set of experiments",HSV-1; Vero cells,no dose-response or consistent protective effect
same,protective effect,"HSV-1; Vero cells, 125 PFUs",weak protective effect in some wells
"N=C(N)NCCC(=O)O [β-guanidinopropionate, β-guanidinopropionic acid, reference compound]","effect on percent monolayer cell death, second set of experiments",HSV-1; Vero cells,no dose-response or consistent protective effect
same,protective effect,"HSV-1; Vero cells, 125 PFUs",weak protective effect in some wells
"CCN(CC(=O)O)C(=N)N [EGA, N-ethyl-N-amidinoglycine, reference compound]","effect on percent monolayer cell death, second set of experiments",HSV-1; Vero cells,no dose-response or consistent protective effect
same,protective effect,"HSV-1; Vero cells, 125 PFUs",weak protective effect in some wells
"N=C1NCCN1CCC(=O)O [homocyclocreatine, 1-carboxyethyl-2-iminoimidazolidine, reference compound]",Ave. CPE,[6],3.7
same,inhibition at 1000 µg/mL,[7],36%
same,inhibition at 2000 µg/mL,[7],39%
same,inhibition at 4000 µg/mL,[7],50%
N=C1NCC(=O)N1CC(=O)O [Compound 7],antiviral activity,"HSV-1; 41.7 mM, Vero cells, 12-200 PFU/well",consistent antiviral activity
same,cytotoxicity at 41700 µM,[4],4%
CN(CC(=O)O)C(=N)N [creatine],% Rate of Creatine,creatine kinase [3],100%
same,Δ in Absorbance/min,creatine kinase [3],1.18
same,activity,"HSV-1; 70 mM, Vero cells, 125 PFUs",some activity
"N=C1NCCCN1CC(=O)O [1-carboxymethyl-2-iminohexahydropyrimidine, reference compound]","effect on percent monolayer cell death, second set of experiments",HSV-1; Vero cells,no dose-response or consistent protective effect
same,protective effect,"HSV-1; Vero cells, 125 PFUs",weak protective effect in some wells

# From patent US5321030A, “Creatine analogs having antiviral activity” (priority 1991, dated 1994)
